Holding throughout (assay type): cell-based, mouse
The test system of one assay is marrow stromal cells. Nature of the assay: Osteogenic differentiation of marrow stromal cells (marker not specified: ALP activity, osteocalcin mRNA, mineral formation). On the procedure:
The purpose of the study was to identify other osteogenic and anti-adipogenic oxysterols based on the chemical structure of previously identified oxysterols. The ability of such candidate oxysterol molecules to induce the formation of osteoblastic cells in cultures of marrow stromal cells (which are progenitors of osteoblastic cells that make bone) were tested. In order to assess osteogenic differentiation of cells, one or more markers of osteogenic differentiation were measured in untreated cells and cells treated with the test oxysterols. These markers included: alkaline phosphatase activity, osteocalcin mRNA expression and mineral formation in cultures of marrow stromal cells. Activation of either one or more than one marker by a single or combination oxysterols is indicative of their osteogenic property.

For the next assay, the system named is osteocalcin mRNA. Briefly: Northern blotting for osteocalcin mRNA in M2-10B4 cells. The settings on record: for levels of osteocalcin mRNA relative to the control: 5 μM, eight days, M2-10B4. On the procedure:
RNA isolation and Northern blot analysis—Following treatment of cells under appropriate experimental conditions, total RNA was isolated using the RNA isolation kit from Stratagene (La Jolla, Calif., U.S.A.). Total RNA ([…]) was run on a 1% agarose/formaldehyde gel and transferred to Duralon-UV membranes (Strategene, CA, U.S.A.) and cross-linked with UV light. The membranes were hybridized overnight at 60 degree C. with ^32P-labeled mouse osteocalcin cDNA probe, mouse lipoprotein lipase (LPL), mouse adipocyte protein 2 (aP^2) PCR-generated probes, human 28S or 18S rRNA probes obtained from Geneka Biotechnology (Montreal, Quebec, Canada) and Maxim Biotech (San Francisco, Calif., U.S.A.), respectively. The PCR products were generated using primer sets synthesized by Invitrogen (Carlsbad, Calif., U.S.A.) with the following specifications: mouse aP2 gene (accession no. M13261); sense (75-95) 5′-[…]-3′, antisense (362-383) 5′-[…]-3′, generating a PCR product of 309 base pairs. Mouse LPL (accession no. XM—134193); sense (1038-1058) 5′-[…]-3′, antisense (1816-1836) 5′-[…]-3′, generating a PCR product of 799 base pairs. The PCR products were gel-purified and sequenced by the UCLA sequencing core, showing the highest similarity to their respective GenBank entries. Following hybridization, the blots were washed twice at room temperature with 2×SSC+0.1% SDS, and then twice at 60 degree C. with 0.5×SSC+0.1% SDS, and exposed to X-ray film. The extent of gene induction was determined by densitometry.
After 4 and 8 days, total RNA from duplicate samples was isolated and analyzed for osteocalcin (Osc) and 28S rRNA expression by Northern blotting as described. FIG. 3E is a radiogram of Northern blotting for osteocalcin mRNA in M2 cells exposed to a control or combination of oxysterols for 4 or 8 days. FIG. 3F is a bar graph depicting the relative demsometric units of osteocalcin mRNA in M2 cells exposed to a control or combination of oxysterols for 4 -or 8 days. Data from densitometric analysis of the Northern blot is shown in (F) as the average of duplicate samples, normalized to 28S rRNA.
(§1) Next, a combination of 22R and 20S oxysterols (RS, 2.5 μM each) were added in the presence or absence of SC as indicated. After 3 days, ALP activity was measured as described earlier. […] (B) M2 cells were treated as described in (A) and after 10 days matrix mineralization in cultures was quantified by a ^45Ca incorporation assay as described earlier. […] (C) M2 cells were pretreated with 20 μM SC for 4 hours, followed by the addition of RS in the presence or absence of SC as described above. After 8 days, total RNA was isolated and analyzed for osteocalcin (Osc) and […] expression by Northern blotting as previously described. Data from densitometric analysis of the Northern blot is shown in (D) as the average of duplicate samples, normalized to 18S rRNA. (E) M2 cells at confluence were pretreated for 2 hours with control vehicle (C), or PLA2 inhibitors ACA (25 μM) and AACOCF3 (AAC, 20 μM), in osteogenic medium. Next, a combination of 22R and 20S oxysterols (RS, 2.5 μM) was added in the presence or absence of the inhibitors as indicated. After 3 days, ALP activity was measured as previously described. […] (F) M2 cells were treated as described in (E). After 10 days, matrix mineralization in cultures was quantified using a ^45Ca incorporation assay as previously described. Results from a representative of three experiments are shown, reported as the mean of quadruplicate determinations ±SD, normalized to protein concentration (p<0.01 for RS vs. RS+ACA and RS+AAC).
ALP activity was measured after 2 days, as described. […] (B) M2 cells were treated as described in (A). After 10 days, matrix mineralization in cultures was quantified using a ^45Ca incorporation assay as described. […] (C) M2 cells were treated under similar conditions as those described above. […]

The subject of a further assay is M2 cells. Nature of the assay: Troglitazone-induced adipogenesis in M2 cells (oil Red O staining, adipocyte count). The conditions noted are these: Tro 10 μM, oxysterol 10 μM, 10 days, alone or in combination. On the procedure: (§2) Von Kossa and oil red O staining—Matrix mineralization in cell monolayers was detected by silver nitrate staining as previously described. Oil red O staining for detection of adipocytes was performed as previously described.
Test 1: M2 cells at 90% confluence were treated with vehicle (C), PPAR-γ activator, troglitazone 10 μM (Tro), alone or in combination with 10 μM oxysterols 20S-, 22R-, or 25S-hydroxycholesterol. After 8 days, adipocytes were identified by oil Red 0 staining and quantified by counting under a phase contrast microscope. FIG. 6A is a bar graph depicting the effect of oxysterols on reducing adipogenesis of MSC.
Test 2: (A) M2 cells at confluence were treated in RPMI containing 10% FBS with control vehicle or 10 μM troglitazone (Tro) in the absence or presence of 10 μM 20S or 22S-hydroxycholesterol. After 10 days, adipocytes were visualized by oil Red O staining and quantified by light microscopy, shown in (B). […] (C) M2 cells were treated at confluence with 10 μM Tro, alone or in combination with 10 μM 20S oxysterol. After 10 days, total RNA was isolated and analyzed for lipoprotein lipase (LPL), adipocyte P2 gene (aP2) or 18S rRNA expression by Northern blotting as described (Ref). Data from densitometric analysis of the Northern blot is shown in (D) as the average of duplicate samples, normalized to 18S rRNA.

For assay [1], the system named is M2-10B4 marrow stromal cells. Briefly: Alkaline phosphatase (ALP) activity assay on whole cell extracts of M2-10B4 marrow stromal cells. The conditions noted are these: for Enzyme Activity (units/mg total cellular protein) ± SD, alkaline phosphatase: oxysterols 5 μM, 4 days, M2-10B4, untreated 6 ± 3. On the procedure:
(§3) Cells: M2-10B4 mouse marrow stromal cell line obtained from American Type Culture Collection (ATCC, Rockville, Md., U.S.A.) was derived from bone marrow stromal cells of a (C57BL/6J x C3H/HeJ) Fl mouse, and support human and murine myelopoiesis in long-term cultures (as per ATCC) and have the ability to differentiate into osteoblastic and adipocytic cells. Unless specified, these cells were cultured in RPMI 1640 containing 10% heat-inactivated FBS, and supplemented with 1 mM sodium pyruvate, 100 U/ml penicillin, and 100 U/ml streptomycin (all from Irvine Scientific).
Cells were always treated at 90% confluence. […]
as §1, with “Results from a representative of three experiments are shown, reported as the mean of quadruplicate determinations ±SD, normalized to protein concentration (p<0.01 for RS vs. RS+ACA and RS+AAC).” left out

Assay [2] concerns M2-10B4 marrow stromal cells. Briefly: Matrix mineralization (45Ca incorporation assay, von Kossa staining) in M2-10B4 marrow stromal cells. The conditions noted are these: pretreatment; cyclopamine 1-10 μM, DKK-1 1 μg/ml. On the procedure:
as §3, §2
^45Ca incorporation assay—Matrix mineralization in cell monolayers was quantified using the ^45Ca incorporation assay as previously described.
After 14 days, mineralization was identified by a von Kossa staining, which appears black. FIG. 3C is a depiction of von Kossa staining of M2 cells exposed to various conditions.
After 14 days, matrix mineralization in cultures was quantified using a ^45Ca incorporation assay.
as §1
(A) M2 cells at confluence were pretreated for four hours with RPMI containing 1% FBS, followed by treatment with control vehicle or 5 μM 20S oxysterol for 1, 4, or 8 hours. Next total cell extracts were prepared and analyzed for levels of native or phosphorylated ERK (pERK) using specific antibodies as previously described. Data from a representative of four experiments are shown, each treatment shown in duplicate samples. (B) M2 cells at confluence were pretreated for 2 hours with control vehicle (C) or 20 μM PD98059 (PD) in osteogenic medium as previously described. Next, a combination of 22R and 20S oxysterols (RS, 5 μM each) were added to appropriate wells as indicated. After 10 days of incubation, matrix mineralization was quantified by the ^45Ca incorporation assay as previously described. […] (C) M2 cells at confluence were pretreated for 2 hours with 20 µM PD98059 (PD) in RPMI containing 5% FBS. Next, the cells were treated with control vehicle (C), 10 μM troglitazone (Tro), or 10 μM of 20S or 22S oxysterols, alone or in combination as indicated. After 10 days, adipocytes were visualized by oil Red O staining and quantified by light microscopy as previously described. […]

A further assay concerns Runx2. Briefly: Runx2 DNA binding and protein expression in M2-10B4 cells. The settings on record: pretreatment; cyclopamine 1-10 μM; DKK-1 1 μg/ml (Runx2 protein expression only). On the procedure: Method: Marrow stromal cells (M2-10B4 (M2)) were treated with doses of 5-15 μM 20S-hydroxycholestrol.
Method: Marrow stromal cells (M2-10B4 (M2)) were treated with doses of 5-15 μM20S-hydroxycholestrol. Groups of cells were pre-treated with 22S or 22R.
Method: Marrow stromal cells (M2-10B4 (M2)) were pretreated with Wnt signaling inhibitor, DKK-1 (1 μg/ml), then treated with 20S-hydroxycholestrol and 22(8)-hydroxycholesterol.

Take `CC(C)CCC[C@@H](C)[C@H]1CC[C@H]2[C@@H]3CC=C4[C@@H](O)[C@@H](O)CC[C@]4(C)[C@H]3CC[C@]12C` [4beta-hydroxycholesterol]: the “osteogenic property, alone or in combination with originally described oxysterols” value (“osteogenic property” below) in the assay on marrow stromal cells is reported as “osteoinductive”. Also, the “levels of osteocalcin mRNA relative to the control” value with osteocalcin mRNA is recorded as “moderate increase”.

For the compound `CC(C)CCC[C@@H](C)[C@H]1CC[C@H]2[C@@H]3C(=O)C=C4C[C@@H](O)CC[C@]4(C)[C@H]3CC[C@]12C` [7-ketocholesterol, reference compound], the “effect on troglitazone-induced adipogenesis” value in the assay with M2 cells was “unable to inhibit adipogenesis”. Besides, the “induction of alkaline phosphatase activity” value in assay [1] (10 μM oxysterol, 3 days, osteogenic medium) is “did not induce”.

Turning to `CC(C)[C@@H](O)CC[C@@H](C)[C@H]1CC[C@H]2[C@@H]3CC=C4C[C@@H](O)CC[C@]4(C)[C@H]3CC[C@]12C` [24-hydroxycholesterol, 24(S)-hydroxycholesterol], in the assay on marrow stromal cells, the “osteogenic property” value is recorded as “osteoinductive”. In assay [1], the “Enzyme Activity (units/mg total cellular protein) ± SD, alkaline phosphatase” value is 250 ± 20 units/mg total cellular protein.

On to `C[C@H](CC[C@@H]1OC1(C)C)[C@H]1CC[C@H]2[C@@H]3CC=C4C[C@@H](O)CC[C@]4(C)[C@H]3CC[C@]12C` [24S,25-epoxycholesterol], for which, in the assay on marrow stromal cells, the “osteogenic property” value is on record as “osteoinductive”. In addition, the “Enzyme Activity (units/mg total cellular protein) ± SD, alkaline phosphatase” value in assay [1] is given as 1,588 ± 19^ units/mg total cellular protein. Moreover, the “levels of osteocalcin mRNA relative to the control” value in the assay with osteocalcin mRNA is “increased”.

Regarding `CC1=C2C[C@H]3[C@@H](CC=C4C[C@@H](O)CC[C@@]43C)[C@@H]2CC[C@]12O[C@@H]1C[C@H](C)CN[C@H]1[C@H]2C` [cyclopamine, reference compound], the “effect on SS-induced mineralization” value in assay [2] is on record as “inhibited”. Also, the “effect on SS-induced Runx2 DNA binding and protein expression” value in the assay with Runx2 was “inhibited”. Further, the “effect on SS-induced osteocalcin mRNA expression” value in the assay with osteocalcin mRNA (pretreatment, cyclopamine 1-10 μM, DKK-1 1 μg/ml) is given as “inhibited”.

(Values after patent US20090220562A1, “Osteogenic and anti-adipogenic oxysterols” (priority 2005, published 2009).)
